Test results from article PMC6920897, “Interactions of 7,8-Dihydroxyflavone with Serum Albumin as well as with CYP2C9, CYP2C19, CYP3A4, and Xanthine Oxidase Biotransformation Enzymes” (Biomolecules, 2019).
Values joined by “and” are separate entries in the source; they are usually repeats but may differ in a detail not shown here. Identical values can stand only once. Like-named read-outs stand apart in the source and are kept apart here.

Key:
CYP2C19 = CYP2C19 (Homo sapiens, UniProt P33261); assay: CYP2C19 in vitro enzyme assay (S-mephenytoin to 4-hydroxymephenytoin); type: biochemical
Experimental: To study the inhibitory effect of DHF on CYP2C19, S-mephenytoin was used as the substrate. During the enzyme-catalyzed reaction, 4-hydroxymephenytoin is formed. […] The incubation was performed in a thermomixer (120 min, 600 rpm, 30 °C). […] After centrifugation (10 min, 14,000× g, 25 °C), S-mephenytoin and 4-hydroxymephenytoin were quantified in the supernatants by HPLC (see Section 2.5).
The mobile phase contained acetonitrile, methanol, and sodium phosphate buffer (10 mM, pH 4.55) (20:15:65 v/v%). […] S-mephenytoin and 4-hydroxymephenytoin were detected at 230 nm.

[1] = target: T1, xanthine oxidase (XO; from bovine milk) (Bos taurus, UniProt P80457); assay: Xanthine oxidase in vitro enzyme assay (6-mercaptopurine to 6-thiouric acid); type: biochemical; details: substrate 6-mercaptopurine 5.0 μM
T1 construct: xanthine oxidase (XO; from bovine milk); purchased Sigma-Aldrich; host or cells: bovine milk
Experimental: The inhibitory action of DHF on XO was investigated as described earlier [31]. In the enzyme-catalyzed reaction, 6-mercaptopurine is oxidized to 6-thiouric acid. […] The incubates (with 500 μL final volume) contained XO enzyme (0.01 unit/mL), 6-mercaptopurine (5 μM), and increasing concentrations of DHF (0, 5, 10, 15, and 20 μM) in sodium phosphate buffer (50 mM, pH 7.5). Samples were incubated in thermomixer (40 min, 700 rpm, 37 °C). The reaction was started by the addition of the enzyme and stopped by the addition of 30 μL of perchloric acid (6 M). After the samples were vortexed and centrifuged (5 min, 1,4000× g, room temperature), a 300-μL aliquot of the supernatant was transferred into another Eppendorf tube; then, 36 μL of potassium hydroxide (1 M) was added to this fraction. Samples were cooled to 3 °C, then, centrifuged (5 min, 14,000× g, 3°C). 6-mercaptopurine and 6-thiouric acid were quantified in the supernatants by HPLC (see Section 2.5).
The samples were driven through a Phenomenex SecurityGuard (C18, 4.0 × 3.0 mm) guard column linked to a Phenomenex Gemini-NX C18 (150 × 4.6 mm, 3 μm) analytical column. The eluent contained methanol, acetonitrile, and 0.02 M orthophosphoric acid (4:5:91 v/v%). The isocratic elution was performed at 0.8 mL/min flow rate at room temperature. 6-mercaptopurine and 6-thiouric acid were detected at 334 nm.

CYP3A4 [2] = target: T2, CYP3A4 (Homo sapiens, UniProt P08684); assay: CYP3A4 in vitro enzyme assay (testosterone to 6β-hydroxytestosterone)
Experimental: The inhibitory effect of DHF on CYP3A4 was investigated as described previously. In the enzyme-catalyzed reaction, testosterone is oxidized to 6β-hydroxytestosterone. […] The incubates (with 200 μL final volume) contained CypExpress 3A4 reagent (15 mg/mL; containing also the NADPH generating system), testosterone (5 μM), NADP^+ (200 μM), G6P (500 μM), and increasing concentrations of DHF (0, 5, 10, 15, and 20 μM) in potassium phosphate buffer (50 mM, pH 7.5). Samples were incubated in thermomixer (180 min, 600 rpm, 30 °C). The reaction was started by the addition of the enzyme and stopped by the addition of 100 μL of ice-cold methanol. After centrifugation (10 min, 14,000× g, 25 °C), testosterone and 6β-hydroxytestosterone were analyzed in the supernatants by HPLC (see Section 2.5).
Testosterone and 6β-hydroxytestosterone (CYP3A4 assay) were quantified as reported previously. The samples were driven through a Phenomenex Security Guard (C18, 4.0 × 3.0 mm) guard column linked to a Kinetex EVO C18 (150 × 4.6 mm, 5 μm) analytical column (Phenomenex). The mobile phase contained methanol, water, and glacial acetic acid (59:40:1 v/v%). The isocratic elution was performed at 1.2 mL/min flow rate at room temperature. Testosterone and 6β-hydroxytestosterone were detected at 240 nm.

[3] = tested on: T3, human serum albumin (HSA); assay: Fluorescence quenching of HSA by DHF (Stern-Volmer, Hyperquad2006); type: binding; details: HSA 2 μM, PBS pH 7.4, 25 °C
T3 construct: purchased Sigma-Aldrich
Experimental: Fluorescence spectroscopic measurements were carried out using a Hitachi F-4500 fluorescence spectrophotometer (Tokyo, Japan). The binding constant of the DHF–HSA complex was determined by fluorescence quenching, during which increasing amounts of DHF (final concentrations: 0, 0.5, 1.0, 2.0, 3.0, 4.0, 5.0, and 6.0 μM) were added to HSA (2 μM) in phosphate buffered saline (PBS; pH 7.4; containing 8.00 g/L NaCl, 0.20 g/L KCl, 1.81 g/L Na2HPO4 × 2H2O, and 0.24 g/L KH2PO4); then, emission spectra were recorded using 295-nm excitation wavelength (at 25 °C, in the presence of air). DHF-HSA interaction was evaluated using the graphical application of the Stern-Volmer equation [25, 26]:(1) I0/I=[…], where I0 and I are the fluorescence emission intensity of HSA at 340 nm in the absence and presence of DHF, respectively. KSV denotes the Stern–Volmer quenching constant (unit: L/mol), and [Q] is the concentration of DHF (unit: mol/L). Furthermore, the binding constant (K; unit: L/mol) of the DHF–HSA complex was determined by nonlinear fitting applying the Hyperquad2006 software as described elsewhere. […]

CYP2C9 [4] = target: T4, CYP2C9 (Homo sapiens, UniProt P11712); assay: CYP2C9 in vitro enzyme assay (diclofenac to 4'-hydroxydiclofenac)
Experimental: The inhibitory action of DHF on CYP2C9 was investigated as described earlier. In the enzyme-catalyzed reaction, diclofenac is oxidized to 4′-hydroxydiclofenac. […] The incubates (with 200 μL final volume) contained CypExpress 2C9 reagent (8 mg/mL) including also the NADPH (nicotinamide adenine dinucleotide phosphate, reduced) generating system, diclofenac (15 μM), and increasing concentrations of DHF (0, 15, 30, 45, and 60 μM) in potassium phosphate buffer (50 mM, pH 7.5). The incubation was carried out in a thermomixer (80 min, 700 rpm, 30 °C). The reaction was started by the addition of the enzyme and stopped by the addition of 100 μL of ice-cold methanol; then, the samples were centrifuged (10 min, 14,000× g, 25 °C). Diclofenac and 4′-hydroxydiclofenac were analyzed in the supernatants by HPLC (see Section 2.5).
Diclofenac and 4′-hydroxydiclofenac (CYP2C9 assay) were quantified as reported previously. The samples were driven through a Phenomenex Security Guard (C8, 4.0 × 3.0 mm) guard column (Torrance, CA, USA) linked to an Eclipse C8 (150 × 4.6 mm, 5 μm; Agilent, Santa Clara, CA, USA) analytical column. The separation was carried out at 1.0 mL/min flow rate at room temperature. During the isocratic elution, the mobile phase contained acetonitrile and 6 mM orthophosphoric acid (52:48 v/v%). Diclofenac and 4′-hydroxydiclofenac were detected at 275 nm.

HSA Site II (naproxen) = tested on: T5, HSA Site II (naproxen); assay: Ultrafiltration: displacement of Site II marker naproxen from HSA; type: binding, human; details: naproxen 1.0 μM, HSA 1.5 μM, PBS pH 7.4
T5 construct: purchased Sigma-Aldrich
Experimental: Pall Microsep Advance centrifugal devices with a 10-kDa molecular weight cut-off (MWCO) value (VWR; Budapest, Hungary) were applied. […] Before ultrafiltration, the filter units were washed once with 3.0 mL of distilled water and twice with 3.0 mL of PBS; then, samples (with a 2.5 mL volume) were driven through the filters by centrifugation (10 min, 7500× g, fixed-angle rotor, 25 °C). The concentrations of site markers in the filtrates were quantified with HPLC (see Section 2.5). Naproxen was analyzed in the filtrates as described earlier. […] The mobile phase contained acetonitrile and sodium acetate buffer (6.9 mM, pH 4.0) (50:50 v/v%). […] Naproxen was detected at 230 nm.

[5] = design: method as in PMID 29295929; details: mice, cited from earlier work
[6] = tested on: T6, warfarin-HSA complex (Site I); assay: Fluorescence-based displacement of warfarin from HSA; type: binding, human; details: warfarin 1.0 μM, HSA 3.5 μM, DHF 0-10 μM, PBS pH 7.4, λex 317 nm
T6 construct: purchased Sigma-Aldrich
Experimental: Ultraviolet (UV)-Vis spectra of DHF were recorded employing a Halo DB-20 spectrophotometer (Dynamica; Dietikon, Switzerland), after which the inner filter effect of DHF was corrected in each experiment based on the following equation [26, 28]:(2) Icorr=Iobs×e^(Aex+ Aem)/2, where Icorr and Iobs indicate the corrected and the measured fluorescence emission intensity, respectively, while Aex and Aem denote the absorption of DHF at the excitation and emission wavelengths used, respectively.

HSA Site I (warfarin) = tested on: T7, HSA Site I (warfarin); assay: Ultrafiltration: displacement of Site I marker warfarin from HSA; type: binding, human; details: warfarin 1.0 μM, HSA 5.0 μM, PBS pH 7.4
T7 construct: purchased Sigma-Aldrich
Experimental: Pall Microsep Advance centrifugal devices with a 10-kDa molecular weight cut-off (MWCO) value (VWR; Budapest, Hungary) were applied. […] Before ultrafiltration, the filter units were washed once with 3.0 mL of distilled water and twice with 3.0 mL of PBS; then, samples (with a 2.5 mL volume) were driven through the filters by centrifugation (10 min, 7500× g, fixed-angle rotor, 25 °C). The concentrations of site markers in the filtrates were quantified with HPLC (see Section 2.5). […] The samples were driven through a Nova-Pak C18 guard column (3.9 × 20 mm, 4 μm; Waters,) and a Nova-Pak C18 analytical column (3.9 × 150 mm, 4 μm; Waters). The mobile phase contained sodium phosphate buffer (25 mM, pH 7.0), methanol, and acetonitrile (70:25:5 v/v%).

[7] = cited from earlier work
HSA = details: cited from earlier work
CYP2C9 [8] = target: T4, CYP2C9; details: same model as this study; cited from earlier work
CYP3A4 [9] = target: T2, CYP3A4; design: method as in PMID 30142539; details: same model as this study; cited from earlier work

T2 sequence (P08684 whole entry): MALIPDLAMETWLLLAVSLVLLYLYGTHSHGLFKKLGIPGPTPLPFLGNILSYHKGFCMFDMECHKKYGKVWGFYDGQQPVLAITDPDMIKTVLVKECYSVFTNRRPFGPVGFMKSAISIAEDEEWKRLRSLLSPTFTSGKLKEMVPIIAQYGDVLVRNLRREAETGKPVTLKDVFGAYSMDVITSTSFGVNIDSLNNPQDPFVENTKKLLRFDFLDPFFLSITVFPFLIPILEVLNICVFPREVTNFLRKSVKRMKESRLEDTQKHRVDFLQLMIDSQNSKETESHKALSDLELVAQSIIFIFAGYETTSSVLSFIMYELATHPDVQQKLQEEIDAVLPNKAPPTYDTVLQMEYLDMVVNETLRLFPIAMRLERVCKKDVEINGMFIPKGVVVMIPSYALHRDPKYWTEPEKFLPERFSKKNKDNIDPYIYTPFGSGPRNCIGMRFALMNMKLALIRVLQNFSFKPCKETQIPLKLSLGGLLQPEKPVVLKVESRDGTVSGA
T4 sequence (P11712 whole entry): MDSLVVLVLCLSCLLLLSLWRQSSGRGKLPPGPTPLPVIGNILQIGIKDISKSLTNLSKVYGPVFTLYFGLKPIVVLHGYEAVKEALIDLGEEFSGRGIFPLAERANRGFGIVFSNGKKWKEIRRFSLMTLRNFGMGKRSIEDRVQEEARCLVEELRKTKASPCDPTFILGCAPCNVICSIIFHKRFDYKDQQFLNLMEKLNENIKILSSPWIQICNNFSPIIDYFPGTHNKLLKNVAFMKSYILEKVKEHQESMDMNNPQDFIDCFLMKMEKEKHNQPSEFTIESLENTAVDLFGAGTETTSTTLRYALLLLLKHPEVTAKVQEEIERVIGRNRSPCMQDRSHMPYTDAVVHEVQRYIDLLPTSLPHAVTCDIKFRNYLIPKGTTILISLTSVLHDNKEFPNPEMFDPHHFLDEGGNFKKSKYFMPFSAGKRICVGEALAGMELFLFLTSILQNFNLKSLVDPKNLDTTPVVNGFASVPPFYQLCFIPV
Chain of CYP2C19 (P33261 whole entry): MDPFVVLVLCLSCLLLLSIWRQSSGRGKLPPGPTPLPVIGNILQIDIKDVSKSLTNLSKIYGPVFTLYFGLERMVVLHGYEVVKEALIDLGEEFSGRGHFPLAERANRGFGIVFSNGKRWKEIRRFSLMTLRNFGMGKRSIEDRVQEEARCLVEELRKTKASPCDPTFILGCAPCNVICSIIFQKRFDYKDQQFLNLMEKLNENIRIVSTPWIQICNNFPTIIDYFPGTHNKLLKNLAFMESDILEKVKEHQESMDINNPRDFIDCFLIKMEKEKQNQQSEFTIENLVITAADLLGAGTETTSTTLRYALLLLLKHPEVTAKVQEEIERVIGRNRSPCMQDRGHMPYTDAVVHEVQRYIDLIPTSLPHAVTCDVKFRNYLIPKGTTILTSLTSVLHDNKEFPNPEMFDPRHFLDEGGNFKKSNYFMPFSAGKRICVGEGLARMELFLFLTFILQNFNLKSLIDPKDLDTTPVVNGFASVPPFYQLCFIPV
T1 sequence (P80457 whole entry): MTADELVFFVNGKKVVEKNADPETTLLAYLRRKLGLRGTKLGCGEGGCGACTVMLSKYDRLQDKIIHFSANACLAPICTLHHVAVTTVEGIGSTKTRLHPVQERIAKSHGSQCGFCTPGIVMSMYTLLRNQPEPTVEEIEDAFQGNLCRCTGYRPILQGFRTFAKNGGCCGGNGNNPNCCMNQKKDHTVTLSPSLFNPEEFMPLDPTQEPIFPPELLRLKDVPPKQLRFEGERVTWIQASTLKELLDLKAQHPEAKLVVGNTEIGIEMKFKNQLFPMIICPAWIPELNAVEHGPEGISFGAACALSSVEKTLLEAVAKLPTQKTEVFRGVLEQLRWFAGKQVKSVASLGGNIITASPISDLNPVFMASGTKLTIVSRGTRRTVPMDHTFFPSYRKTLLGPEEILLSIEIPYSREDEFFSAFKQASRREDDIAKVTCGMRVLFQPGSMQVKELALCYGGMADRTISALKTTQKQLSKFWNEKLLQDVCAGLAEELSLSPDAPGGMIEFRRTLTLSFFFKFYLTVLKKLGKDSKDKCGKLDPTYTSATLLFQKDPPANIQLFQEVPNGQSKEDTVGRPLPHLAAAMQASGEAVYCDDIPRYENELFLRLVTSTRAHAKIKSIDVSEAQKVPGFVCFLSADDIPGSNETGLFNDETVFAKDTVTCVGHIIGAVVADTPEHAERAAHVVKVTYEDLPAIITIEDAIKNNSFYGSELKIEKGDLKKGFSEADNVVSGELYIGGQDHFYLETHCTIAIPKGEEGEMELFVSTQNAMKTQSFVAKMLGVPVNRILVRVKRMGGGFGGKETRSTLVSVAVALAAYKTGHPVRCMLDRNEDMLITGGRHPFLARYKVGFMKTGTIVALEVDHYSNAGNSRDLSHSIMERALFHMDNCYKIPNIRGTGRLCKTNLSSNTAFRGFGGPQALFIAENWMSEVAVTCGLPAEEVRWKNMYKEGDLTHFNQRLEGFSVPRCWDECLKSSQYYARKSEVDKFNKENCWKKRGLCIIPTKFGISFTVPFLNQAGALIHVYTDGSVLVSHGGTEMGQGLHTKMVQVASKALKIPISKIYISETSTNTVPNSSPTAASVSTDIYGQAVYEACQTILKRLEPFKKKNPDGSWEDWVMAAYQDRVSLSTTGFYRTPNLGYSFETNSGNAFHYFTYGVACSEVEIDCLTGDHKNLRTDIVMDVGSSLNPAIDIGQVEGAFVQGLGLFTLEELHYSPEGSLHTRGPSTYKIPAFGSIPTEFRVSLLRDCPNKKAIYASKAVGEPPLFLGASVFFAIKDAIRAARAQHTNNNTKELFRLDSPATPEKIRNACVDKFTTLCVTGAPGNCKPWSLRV

Structure (SMILES): O=c1cc(-c2ccccc2)oc2c(O)c(O)ccc12 [DHF, 7,8-dihydroxyflavone]
- IC50 (CYP2C19): 19 µM
- IC50(rel) (IC50 divided by substrate concentration) (CYP2C19; human, 120 min, pH 7.5): 3.8
- IC50 [1]: 11 µM
- IC50 (CYP3A4 [2]): 14.5 µM
- IC50(rel) (IC50 divided by substrate concentration) (CYP3A4 [2]; human, 180 min, pH 7.5): 2.9
- Stern-Volmer quenching constant KSV ([3]; λex 295 nm, λem 340 nm): 344000 ± 3000 L/mol
- binding constant K of DHF-HSA complex ([3]; nonlinear fitting with Hyperquad2006): 490000 L/mol and 487000 ± 7000 L/mol
- IC50 (CYP2C9 [4]): 34.5 µM
- IC50(rel) (IC50 divided by substrate concentration) (CYP2C9 [4]; human, 80 min, pH 7.5): 2.3
- α (IC50 of DHF divided by IC50 of positive control) (CYP2C9 [4]; human, 80 min, pH 7.5): 1.0
- further fraction of total naproxen in the filtrate (HSA Site II (naproxen); 10 μM DHF): 14%
- further fraction of total naproxen in the filtrate (HSA Site II (naproxen); 20 μM DHF): 22%
- plasma concentrations ([5]; per os 15-50 mg/kg DHF): 33 to 192 nM
- oral bioavailability [5]: approximately 4.5%
- effect on fluorescence emission signal of warfarin at 379 nm [6]: strongly decreased
- fraction of total warfarin became unbound (HSA Site I (warfarin); 10 μM DHF): 12%
- fraction of total warfarin became unbound (HSA Site I (warfarin); 20 μM DHF): 21%

Structure (SMILES): Clc1ccccc1CN1CCc2sccc2C1 [TIC, ticlopidine]
- peak plasma concentrations ([7]; chronic treatment, oral 250 mg twice daily, men): 3.4 to 4.1 µM
- average peak plasma concentrations ([7]; oral 3 × 100 mg daily, healthy subjects): approximately 3.5 μM
- peak plasma concentration ([7]; oral single 250 mg dose): 1.3 to 2.6 µM

Structure (SMILES): CC(=O)CC(c1ccccc1)c1c(O)c2ccccc2oc1=O (stereo not shown) [WAR, warfarin, reference compound]
- IC50(rel) (IC50 divided by substrate concentration) (CYP2C9 [4]; human, 80 min, pH 7.5): 2.3
- binding constant K to HSA (HSA; warfarin-HSA): 340000 L/mol

Structure (SMILES): COc1ccc(-c2oc3cc(OC)c(OC)c(O)c3c(=O)c2OC)cc1O [casticin]
- fold weaker inhibitor of CYP2C9 compared to DHF (CYP2C9 [8]): 1.3 fold

Structure (SMILES): O=c1cc(-c2ccccc2)oc2cc(O)cc(O)c12 [chrysin, 5,7-dihydroxyflavone]
- binding constant K to HSA (HSA; chrysin-HSA): 340000 L/mol

Structure (SMILES): Oc1ccc(/C=C/c2cc(O)cc(O)c2)cc1 [resveratrol]
- inhibitory effect on CYP3A4 compared to DHF (CYP3A4 [9]): two-fold stronger inhibitor
